The text below walks through data of US20030039628A1, “Activation and protection of T-cells (CD4+ and CD8+) using an H2 receptor agonist and other T-cell activating agents” (priority 1998, published 2003).

In data set [1] the test system is T-cells and NK-cells. Kind of data set: MO-induced cell death (apoptosis) of T-cells and NK-cells, flow cytometry. Format: cell-based, human. Here is the method:
In this Example, apoptotic morphology of lymphocytes exposed to MO was monitored by staining cells with a dye mix containing acridine orange (10:g/ml; Sigma) and ethidium bromide (10:g/ml; Sigma), both prepared in phosphate buffered saline. One microliter (1:1) of dye mix was added to 25:1 of cells suspension (1-2×10^6/ml) in siliconized test tubes. Thereafter, 10:1 of the cell suspension was placed on a glass slide and immediately counted in a fluorescence microscope (Nikon) under times forty (×40) magnification with qualification of dead, living, apoptotic and non-apoptotic cells. (See Hellstrand, K., et al. J. Immunol., 153: 4940-4947 (1994); Hansson, M., et al., J. Immunol. 156:42-47 (1996)).
(See Hansson M., et al., supra). Cell death in lymphocytes was monitored by gating nonviable T-cells or NK-cells after exposure to MO, with and without histamine or catalase. A gate with reduced forward scatter and increased right angle scatter characteristic of apoptosis was employed in these studies. (See Hansson M., et al., supra; Mizgerd J. P., et al., J. Leukoc. Biol. 59:189 (1996); herein incorporated by reference; gate also described in Example 1).
Background: In flow cytometry, cells or beads pass a laser one at a time.

Data set [2] addresses H2 receptor (Homo sapiens, UniProt P25021). The conditions noted are these: cited from earlier work.
Data set [3] deals with CD69 expression on T-cells. Kind of data set: CD69 expression on T-cells incubated with or without autologous monocytes (MO), flow cytometry. Format: cell-based, human. As for the experimental part:
To study the activation characteristics of T-cells in the presence and absence of MO, T-cell activation compounds, H2-receptor agonists, and H2O2 scavengers, peripheral venous blood was obtained as freshly prepared leukopacks from healthy blood donors at the Blood Centre, Sahlgren's Hospital, Göteborg, Sweden. The blood (65 ml) was mixed with 92.5 ml Iscove's medium, 35 ml 6% Dextran (Kabi Pharmacia, Stockholm, Sweden) and 7.5 ml acid citrate dextrose (ACD) (Baxter, Deerfield, Ill.). After incubation for 15 minutes at room temperature, the supernatant was carefully layered onto Ficoll-Hypaque (Lymphoprep, Myegaard, Norway). Mononuclear cells (MNC) were collected at the interface after centrifugation at 380 g for 15 minutes at room temperature, washed twice in PBS and resuspended in Iscove's medium supplemented with 10% human AB^+ serum. During all further separation of cells, the cell suspensions were kept in siliconized test tubes (Vacuette, Greiner, Stockholm).
The MNC were further separated into lymphocyte and monocyte (MO) populations using the counter-current centrifugal elutriation (CCE) technique originally described by Yasaka and co-workers (Yasaka, T. et al., J. Immunol., 127:1515) with modifications as described in Hansson, M., et al. (J. Immunol., 156: 42 (1996); hereby incorporated by reference). Briefly, the MNC were resuspended in elutration buffer containing 0.05% BSA and 0.015% EDTA in buffered NaCl and fed into a Beckman J2-21 ultracentrifuge with a JE-6B rotor at 2100 rpm. A fraction with >90% MO was obtained at a flow rate of 18 ml/min. A lymphocyte fraction enriched for NK-cells (CD3^−/56^+ phenotype) and T-cells (CD3^+/56^−) was recovered at flow rates of 14-15 ml/min. […] In some experiments, dynabeads (Dynal A/S, Oslo, Norway) coated with anti-CD56 were used to obtain purified lymphocyte preparations of T-cells, as described in detail by Hansson, M., et al., incorporated above.
Flow cytometry was used in the experiments described below to identify the various sub-populations of T-cells. Flow cytometry permits an investigator to examine a population of cells using a number of labeled probes to differentiate sub-populations within the larger whole. In these experiments, the CD3 marker was used to identify the subpopulation of T-cells and the CD4 and CD8 markers were used to further identify the subpopulation of T-cells into T helper cells and CTLs. The effects of MO exposure in the presence and absence of histamine and T-cell activation compounds were determined using the CD69 T-cell activation marker. The expression of the different markers was estimated in a lymphocyte gate using flow cytometry (as described in Hellstrand, K., et al. Cell. Immunol. 138: 44-54 (1991), and hereby incorporated by reference).
The following protocol was used in experiments reporting the detection of surface antigens of cell populations. One million cells were incubated with appropriate fluorescein isothiocynate (FITC) and phycoerythrin (PE) conjugated monoclonal antibodies (Becton & Dickinson, Stockholm, Sweden; 1:1/10^6 cells), on ice for 30 minutes. The cells were washed twice in PBS and resuspended in 500:1 sterile filtered PBS and analyzed by use of flow cytometry on a FACSort with a Lysys II software program (Becton & Dickenson). Lymphocytes were gated on the basis of forward and right angle scatter. The flow rate was adjusted to <200 cells×s^− and at least 5×10^3 cells were analyzed for each sample, if not otherwise stated.
Isolated peripheral blood lymphocytes (150,000 cells/well in a total volume of 0.2 ml) were incubated in microplates for 16 hours at 37° C. in the presence or absence of autologous MO.

Data set [4] concerns NK cells. Conditions: cited from earlier work.
Data set [5] concerns T-cell enriched lymphocytes. Format: cell-based, human.
The test system of data set [6] is NK cells. Conditions: absence of monocytes; cited from earlier work.
Data set [7] deals with lymphocytes. The conditions noted are these: cited from earlier work.
Data set [8] relates to herpes simplex virus (HSV). Conditions: single dose of histamine; cited from earlier work.
The test system of data set [9] is CD3e+ T-cells and CD56+ NK-cells. Conditions: cited from earlier work.

Chain of H2 receptor (P25021 whole entry): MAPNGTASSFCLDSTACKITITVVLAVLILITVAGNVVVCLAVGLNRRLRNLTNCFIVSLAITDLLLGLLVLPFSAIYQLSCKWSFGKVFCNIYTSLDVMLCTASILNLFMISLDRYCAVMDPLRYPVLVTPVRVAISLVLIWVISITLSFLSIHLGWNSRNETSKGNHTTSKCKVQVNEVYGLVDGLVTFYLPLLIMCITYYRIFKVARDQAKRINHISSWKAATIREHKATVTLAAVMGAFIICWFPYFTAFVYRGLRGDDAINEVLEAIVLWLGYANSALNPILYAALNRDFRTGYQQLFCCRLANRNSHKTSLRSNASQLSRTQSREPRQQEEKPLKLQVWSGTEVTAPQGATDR

For the compound `CNC(=C[N+](=O)[O-])NCCOCc1ccc(CN(C)C)o1` [AH20399AA], the “reversal of the histamine effect on MO-induced cell death” value in [1] (concentrations equimolar to 10-fold lower than histamine) is on record as “not”. Also, the “reduction of affinity for the H2 receptor relative to ranitidine” value in data set [2] is on record as > 50 fold. Also, the “antagonism of the histamine response on cytokine-induced CD69 expression” value in data set [3] (equimolar or 10-fold lower concentrations than histamine) is reported as “did not block”.

For the compound `CN(C)CCCSC(=N)N` [dimaprit], the “action on histamine's effect on granulocyte mediated suppression of NK cell antibody dependent cytotoxicity” value in data set [4] is recorded as “mimicked”.

Turning to `NCCc1c[nH]cn1` [histamine], in [1] (all subsets of T-cells and NK-cells, histamine 50 :M, 16 hours), the “prevention of MO-induced cell death” value is listed as > 80%. For the same compound, in [5], the “effect on vaccine-induced proliferation” value is “strongly potentiated” and the “proliferation of cells not treated with the vaccine” value was “slightly augmented”. For the same compound, the “effect on NK mediated cytotoxicity” value in data set [6] is reported as “no effect or weakly suppressed”. Further, the “effect on lymphocyte proliferation in response to phytohemagglutinin or staphylococcal enterotoxin type A” value in [7] is “reduce the proliferation”. Besides, the “survival time of HSV-inoculated animals” value in data set [8] was “prolong survival time”. Also, in [3] (MO present vs. absence of MO), the “effect on CD69 expression in CD3+ and CD4+ T-cells incubated with IFN-α” value was “enhanced the expression of CD69 to a significantly higher level”. For the same compound, in data set [3] (histamine 50 :M, IL-2 100 U/ml, with MO), the “effect on MO-induced inhibition of IL-2 induced acquisition of CD69 in T-cells” value was “counteracted”. Moreover, the “effect on CD69 expression in non-stimulated or cytokine-activated T-cells” value in data set [3] (histamine 50 :M, incubated without MO) was “did not significantly alter”. Besides, the “effect on CD69 expression in CD8+ cells activated with IFN-α” value in data set [3] (with MO) was “restored by histamine to the level observed in pure lymphocytes”. Besides, the “ED50 of effect on cytokine-induced expression of CD69 in T-cells” value in [3] (with MO, histamine 0.1-50:M, dose-dependent) was “approximately 2 :M”.

With `OO` [hydrogen peroxide], in data set [9], the “concentration required to induce apoptosis in CD3e+ T-cells relative to CD56+ NK-cells” value is “Approximately 5 fold”.

With `CNC(=C[N+](=O)[O-])NCCSCc1ccc(CN(C)C)o1` [ranitidine], in data set [4], the “action on histamine's effect on granulocyte mediated suppression of NK cell antibody dependent cytotoxicity” value is “blocked”.

In the case of IFN-α, the “effect of concomitant treatment on MO-induced cell death and on histamine protection” value in data set [1] (100 U/ml) is “unaffected”. Also, the “change of IFN-α-induced CD69 in CD3e+ cells by the addition of MO” value in data set [3] (IFN-α, with vs. without MO) is recorded as “seemingly unchanged”. The “induction of CD69 in CD3e+ cells” value in data set [3] (in response to IFN-α (100 U/ml)) is ~10%. The “induction of CD69 in CD4+ cells compared with IL-2” value in data set [3] (incubated without MO, p<0.01) is “less effective than IL-2”. Besides, the “IFN-α induced level of CD69 on CD4+ cells when MO were added” value in data set [3] (with vs. without MO, p<0.05) is “significantly higher”.

Turning to catalase, the “mimicking of the histamine effect on MO-induced cell death” value in [1] is recorded as “mimicked”. Further, in [3] (absence of MO), the “effect on induction of CD69 in the absence of MO” value is “did not affect”. Moreover, in [3] (catalase 10-200 U/ml, IL-2 100 U/ml, with MO), the “effect on MO-induced inhibition of cytokine-induced CD69 expression” value is given as “significantly reversed”. The “effect of catalase alone on percentage of CD3+ cells expressing CD69” value in data set [3] (catalase alone, 0 to 200 U/ml, with MO) is listed as “little effect”. Also, the “percentage of CD3+ cells expressing the CD69 marker” value in [3] (with MO, IL-2 100 U/ml, catalase 200 U/ml) is ~11%.
